# Measured values reported in patent publication EP4620956A1, “PARP1 INHIBITORS” (Zhejiang Yangli Pharmaceutical Technology Co., Ltd., priority 2022, dated 2024).
# Like-named read-outs stand apart in the source and are kept apart here.
# How the values were obtained:
# PARP1 [1] = biological target: T1, PARP1 (Homo sapiens, UniProt P09874); assay: Inhibition of PARP1 enzyme activity (chemiluminescence); format: biochemical; conditions: for PARP1/2 selectivity fold: PARP2 vs PARP1
# T1 construct: purchased BPS 80501
# PARP2 [2] = biological target: T2, PARP2 (Homo sapiens, UniProt Q9UGN5); assay: Inhibition of PARP2 enzyme activity (chemiluminescence); format: biochemical
# T2 construct: purchased BPS 80502
# PARP1 [3] = biological target: T1, PARP1; assay: DNA trapping capability of PARP1 (HTRF); format: biochemical
# PARP2 [4] = biological target: T2, PARP2; assay: DNA trapping capability of PARP2 (HTRF); format: biochemical
# A549 WT = assay: Cellular PARylation inhibition, high-content imaging, A549 WT; format: cell-based; conditions: Homo sapiens, PARylation at the cellular level
# Experimental: The inhibitory effect of the compounds on PARP1/PARP2 enzyme activity at the cellular level was detected using high-content imaging. A549 WT, PARP1-KO and PARP2-KO cell lines were established in-house, and the cells were revived. After the cells were stable, a sufficient number of cells were collected and 100 µL of the cell suspension was seeded into a 96-well plate. The next day, the example compounds with serially diluted concentrations were added. […] The plate was incubated for 1.5 hours (A549 WT and PARP2-KO cell lines) or 2 hours (PARP1-KO cell line). After removing the supernatant, 0.4 mM H2O2 was added and incubation was carried out for 10 minutes (A549 WT and PARP2-KO cell lines) or 1.5 mM H2O2 was added and incubation was carried out for 15 minutes (PARP1-KO cell line) to induce extensive cellular DNA damage. After removing the supernatant, the cells were fixed with 4% paraformaldehyde for 20 minutes, followed by treatment with 0.5% Triton X-100 for 20 minutes to increase the permeability of the cell membrane. After that, the cells were incubated with 3% BSA for 1 hour to prevent non-specific binding. […] The cell nuclei were stained for 30 minutes by adding 50 µL DAPI (invitrogen, R37606). After washing twice with PBS, images were acquired on OPERETTA CLS™ (PE) by scanning the cells under a 20x water objective lens in non-confocal mode, with 5 fields of view captured per well. […] The inhibition rate was calculated using the fluorescence values from the Max and Min wells, and the dose-response curve was fitted using the analysis software GraphPad Prism 5 to obtain the IC50 value of each compound for the enzyme activity.
# A549 PARP2-KO cell line = assay: Cellular PARylation inhibition, high-content imaging, PARP2-KO; format: cell-based; conditions: for IC50: Homo sapiens
# A549 PARP1-KO cell lines = assay: Cellular PARylation inhibition, high-content imaging, PARP1-KO; format: cell-based; conditions: for inhibition on the enzyme activity at the highest concentration: A549 PARP1-KO cell lines, 40 µM; for IC50: Homo sapiens, A549, PARylation at the cellular level
# MDA-MB-436 = assay: Anti-proliferative activity (CellTiter-Glo, 7 days), MDA-MB-436; format: cell-based, human; conditions: for IC50: Homo sapiens, MDA-MB-436, 168 h, BRCA1-mutated, 7 days, read-out: MDA-MB-436 IC50; for BRCA1 mutation/WT selectivity fold: MDA-MB-231 vs MDA-MB-436
# MDA-MB-231 = assay: Anti-proliferative activity (CellTiter-Glo, 7 days), MDA-MB-231; format: cell-based, human; conditions: for IC50: Homo sapiens; for inhibition on cell proliferation at the highest concentration: 10 µM
# DLD-1 BRCA2^-/- = assay: Anti-proliferative activity (CellTiter-Glo, 7 days), DLD-1 BRCA2-/-; format: cell-based, human; conditions: for BRCA2 mutation/WT selectivity fold: DLD-1 WT vs DLD-1 BRCA2^-/-; for IC50: Homo sapiens, DLD-1, 168 h, BRCA2-mutated, 7 days
# DLD-1 WT = assay: Anti-proliferative activity (CellTiter-Glo, 7 days), DLD-1 WT; format: cell-based, human; conditions: for inhibition on cell proliferation at the highest concentration: BRCA2-normal DLD-1 cell line, 10 µM; for IC50: Homo sapiens, DLD-1, 168 h, BRCA2-normal, 7 days
# Experimental: The anti-proliferation experiment of the compounds on tumour cells adopted the most widely used ATP concentration-based detection method at present. MDA-MB-231 and MDA-MB-436 cell lines were obtained from ATCC, DLD-1 human colourectal adenocarcinoma epithelial cells and DLD-1 BRCA2^-/- cells were obtained from Horizon, and the cells were revived. After the cells were stable, the cells were collected. When the viable cell count exceeded 90%, 450-500 cells were seeded into a 384-well plate. The next day, the example compounds with serially diluted concentrations were added. Only buffer was added to the Max well, and 50 µM AZD2281 was added to the Min well. The plate was incubated for 7 days, and on the eighth day, CellTiter-Glo® reagent (Promega, G7573) was added. The plate was incubated at room temperature for 30 minutes, and the values were read on Envision (PE). The inhibition rate was calculated using the fluorescence values from the Max and Min wells, and the dose-response curve was fitted using the analysis software GraphPad Prism 5 to obtain the IC50 value of each compound for the enzyme activity.
# PARP6 = biological target: T3, PARP6 (Homo sapiens, UniProt Q2NL67); assay: Inhibition of PARP6 enzyme activity (chemiluminescence); format: biochemical
# T3 construct: purchased BPS 80506
# PARP11 = biological target: T4, PARP11 (Homo sapiens, UniProt Q9NR21); assay: Inhibition of PARP11 enzyme activity (chemiluminescent assay kit); format: biochemical
# T4 construct: purchased BPS 80511
# T4 sequence (Q9NR21 1-338): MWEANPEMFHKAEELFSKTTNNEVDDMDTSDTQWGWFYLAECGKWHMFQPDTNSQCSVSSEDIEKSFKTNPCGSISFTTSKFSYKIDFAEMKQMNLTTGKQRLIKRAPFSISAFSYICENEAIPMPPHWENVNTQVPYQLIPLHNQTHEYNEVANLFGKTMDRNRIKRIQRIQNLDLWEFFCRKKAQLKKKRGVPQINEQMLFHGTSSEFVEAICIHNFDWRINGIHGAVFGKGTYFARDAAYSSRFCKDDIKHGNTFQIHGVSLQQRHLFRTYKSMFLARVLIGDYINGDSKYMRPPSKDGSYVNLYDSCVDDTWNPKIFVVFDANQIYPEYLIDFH
# [5] = tested on: MDA-MB-436 xenograft tumour; assay: Anti-tumour effect in MDA-MB-436 subcutaneous xenograft tumour mouse model; format: in vivo; conditions: same dose, MDA-MB-436 xenograft mice
# Experimental: Example 4 was further verified in vivo. A subcutaneous xenograft tumour mouse model of the BRCA1-mutated MDA-MB-436 cell line was selected. Human breast cancer MDA-MB-436 cells (ATCC, HTB-130) were cultured in vitro in a monolayer, with the culture conditions of L-15 medium supplemented with 10% foetal bovine serum, 1% penicillin-streptomycin solution, and 0.01 mg/mL bovine insulin, and cultured at 37°C in a CO2-free incubator. The cells were routinely digested and passaged twice a week using trypsin-EDTA. When the cell confluency reached 80%-90%, the cells were harvested and counted, and 0.2 mL of 1 × 10^7 MDA-MB-436 cells were subcutaneously inoculated on the right back of each mouse (PBS : Matrigel = 1 : 1). When the mean tumour volume reached 152 mm^3, the mice were grouped for drug administration. The day of drug administration was set as Day 0. The tumour volume and the body weight of the mice were monitored twice a week, and the drug treatment lasted for 28 days.
# The diameter of the tumour was measured with a vernier calliper. The tumour volume is calculated according to the following equation: V = 0.5a × b^2, where a and b represent the long and short diameters of the tumour, respectively. The tumour inhibition effect of the compound was evaluated by relative tumour shrinkage rate Reg%. Reg% reflects the rate of tumour volume reduction after treatment. Reg% = (V0-Vt)/V0×100%, where V0 is the tumour volume measured at the time of grouping for drug administration (i.e., d0), and Vt is the tumour volume measured at a certain time point.
# The criteria for compound response in the mouse model were adapted from mRECIST (Modified Response Evaluation Criteria in Solid Tumours) (Gao et al, 2015), and are specifically defined as follows: [formula] • PR (Partial Response): BestResponse < −50% and BestAvgResponse < −20%; [formula] • SD (Stable Disease): BestResponse < 35% and BestAvgResponse < 30%; [formula] • PD (Progressive Disease): other cases; • ORR% is the sum of the proportions of Complete Response (CR) and Partial Response (PR).
# Statistical analysis was performed using Prism software, including the mean value (Mean) and standard error of the mean (SEM) of the tumour volume at each time point for each group. For the statistical analysis of TV, the original TV data from each measurement were used to compare the differences between groups. Two-way ANOVA was applied to include the two factors, i.e., drug administration and time for analysis, followed by the Tukey's multiple comparisons test, wherein p < 0.05 was considered statistically significant.
# [6] = Pharmacokinetic study of single administration in mice; format: in vivo; conditions: CD-1 mice
# Experimental: Male CD-1 mice were used as test animals. The plasma drug concentrations of the compounds were determined and the pharmacokinetic parameters were evaluated after a single administration. Healthy adult male CD-1 mice were selected. The candidate compound was added to 10% DMSO, vortexed and sonicated. After complete dissolution, 30% PEG400 was added, followed by vortexing and sonication, and 60% double-distilled water was added to prepare a clear solution for later use. After the mice were intravenously injected at a dose of 2 mg/kg and orally administered at a dose of 10 mg/kg, whole blood was collected at 5 minutes, 15 minutes, 30 minutes, 1 hour, 2 hours, 4 hours, 8 hours, and 24 hours after administration to prepare plasma. After sample treatment, the drug concentration was analysed by LC-MS/MS method, and the pharmacokinetic parameters were calculated.
# [7] = A549, PARylation at the cellular level, read-out: PARP2-KO IC50
# [8] = PARylation at the cellular level
# [9] = MDA-MB-231, 168 h, BRCA1-normal, 7 days, read-out: MDA-MB-231 IC50
# [10] = ratio relative to the PARP1 enzyme activity
# [11] = BRCA1-normal MDA-MB-231 cell line
# [12] = male, mouse, plasma, IV, 2 mg/kg
# [13] = male, mouse, plasma, PO, 10 mg/kg
# T1 sequence (P09874 whole entry): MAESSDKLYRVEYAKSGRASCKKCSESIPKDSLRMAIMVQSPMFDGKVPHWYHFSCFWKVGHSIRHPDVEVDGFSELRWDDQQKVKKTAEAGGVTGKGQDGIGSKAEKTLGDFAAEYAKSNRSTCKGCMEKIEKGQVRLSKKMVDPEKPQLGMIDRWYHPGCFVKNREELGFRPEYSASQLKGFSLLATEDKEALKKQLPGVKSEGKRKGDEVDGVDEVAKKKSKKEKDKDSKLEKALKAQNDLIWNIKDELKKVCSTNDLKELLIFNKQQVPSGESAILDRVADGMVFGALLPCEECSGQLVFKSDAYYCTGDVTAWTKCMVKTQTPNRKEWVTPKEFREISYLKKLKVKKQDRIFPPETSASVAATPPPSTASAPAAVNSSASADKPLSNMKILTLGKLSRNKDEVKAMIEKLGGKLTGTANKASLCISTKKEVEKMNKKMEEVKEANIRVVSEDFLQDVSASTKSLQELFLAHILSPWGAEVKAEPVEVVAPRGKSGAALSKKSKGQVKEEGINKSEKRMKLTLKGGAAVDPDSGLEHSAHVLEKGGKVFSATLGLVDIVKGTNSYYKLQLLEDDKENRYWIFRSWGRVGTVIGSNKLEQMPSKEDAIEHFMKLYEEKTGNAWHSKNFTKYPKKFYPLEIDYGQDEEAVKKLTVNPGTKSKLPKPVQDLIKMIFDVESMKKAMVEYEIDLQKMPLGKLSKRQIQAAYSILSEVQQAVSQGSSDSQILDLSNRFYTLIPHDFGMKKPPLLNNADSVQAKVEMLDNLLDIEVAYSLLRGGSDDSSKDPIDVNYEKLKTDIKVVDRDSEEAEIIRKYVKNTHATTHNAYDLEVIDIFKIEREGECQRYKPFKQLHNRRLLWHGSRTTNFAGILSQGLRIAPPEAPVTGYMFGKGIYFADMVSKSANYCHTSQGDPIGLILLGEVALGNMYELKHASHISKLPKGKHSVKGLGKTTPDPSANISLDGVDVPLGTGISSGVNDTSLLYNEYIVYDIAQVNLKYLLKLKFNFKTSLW
# T2 sequence (Q9UGN5 whole entry): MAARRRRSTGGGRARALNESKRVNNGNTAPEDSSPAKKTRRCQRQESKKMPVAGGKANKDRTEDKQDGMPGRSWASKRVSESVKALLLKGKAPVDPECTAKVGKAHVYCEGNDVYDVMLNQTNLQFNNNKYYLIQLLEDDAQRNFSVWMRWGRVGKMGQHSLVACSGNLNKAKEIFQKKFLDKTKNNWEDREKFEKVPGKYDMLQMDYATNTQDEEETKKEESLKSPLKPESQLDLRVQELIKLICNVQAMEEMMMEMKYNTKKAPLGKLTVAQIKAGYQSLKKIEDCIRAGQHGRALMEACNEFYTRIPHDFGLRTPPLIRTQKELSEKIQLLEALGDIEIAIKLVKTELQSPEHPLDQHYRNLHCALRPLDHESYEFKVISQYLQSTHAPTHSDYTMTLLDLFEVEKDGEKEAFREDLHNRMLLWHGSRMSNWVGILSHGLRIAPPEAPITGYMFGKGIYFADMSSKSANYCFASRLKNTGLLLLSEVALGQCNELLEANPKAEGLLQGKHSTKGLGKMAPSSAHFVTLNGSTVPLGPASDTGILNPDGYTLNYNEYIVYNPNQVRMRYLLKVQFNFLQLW
# T3 sequence (Q2NL67 whole entry): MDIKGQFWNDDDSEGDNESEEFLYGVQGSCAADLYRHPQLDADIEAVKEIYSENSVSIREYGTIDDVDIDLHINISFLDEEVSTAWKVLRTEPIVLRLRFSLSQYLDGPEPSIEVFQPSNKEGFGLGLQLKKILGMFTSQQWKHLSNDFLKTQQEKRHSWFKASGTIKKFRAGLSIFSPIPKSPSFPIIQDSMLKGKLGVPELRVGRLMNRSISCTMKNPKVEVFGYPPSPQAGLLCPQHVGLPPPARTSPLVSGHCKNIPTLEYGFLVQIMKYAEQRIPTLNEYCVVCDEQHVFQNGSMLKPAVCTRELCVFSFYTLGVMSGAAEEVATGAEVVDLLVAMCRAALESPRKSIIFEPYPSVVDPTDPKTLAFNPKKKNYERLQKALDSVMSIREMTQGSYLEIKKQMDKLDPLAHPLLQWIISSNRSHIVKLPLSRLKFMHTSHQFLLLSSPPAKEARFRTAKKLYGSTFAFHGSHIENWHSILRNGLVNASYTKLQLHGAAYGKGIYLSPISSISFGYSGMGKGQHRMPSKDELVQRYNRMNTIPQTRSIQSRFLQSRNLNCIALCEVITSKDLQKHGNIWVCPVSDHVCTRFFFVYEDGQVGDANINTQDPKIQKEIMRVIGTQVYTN
SMILES,IC50 (PARP1 [1]) [nM],PARP1/2 selectivity fold (PARP1 [1]) [fold],IC50 (PARP2 [2]) [nM],EC50 (PARP1 [3]) [nM],EC50 (PARP2 [4]) [nM],IC50 (A549 WT) [nM],IC50 (A549 PARP2-KO cell line; [7]) [nM],PARP1 KO/PARP2 KO selectivity fold (A549 PARP2-KO cell line; [8]) [fold],inhibition on the enzyme activity at the highest concentration (A549 PARP1-KO cell lines),IC50 (A549 PARP1-KO cell lines) [nM],IC50 (MDA-MB-436) [nM],BRCA1 mutation/WT selectivity fold (MDA-MB-436),IC50 (MDA-MB-231; [9]) [nM],BRCA2 mutation/WT selectivity fold (DLD-1 BRCA2^-/-),IC50 (DLD-1 BRCA2^-/-) [nM],inhibition on cell proliferation at the highest concentration (DLD-1 WT),IC50 (DLD-1 WT) [nM],inhibition on cell proliferation at the highest concentration (MDA-MB-231; [11]),also measured
"CCc1c(N)c2ncc(CN3CCN(c4ccc(C(=O)NC)nc4F)CC3)cc2[nH]c1=O [Example 3, 5-(4-((8-Amino-7-ethyl-6-oxo-5,6-dihydro-1,5-naphthyridin-3-yl)methyl)piperazin-1-yl)-6-fluoro-N-methylpicolinamide]",0.41,21,8.7,3.87,249,5.9,16.2,>2468,no detectable inhibition,> 40000,1.27,"5,828 fold",7400,">1,972 fold",5.07,no detectable inhibition,> 10000,–,"PARP1/2 selectivity fold (PARP1 [3]): 64 fold; IC50 (MDA-MB-231; BRCA1-normal MDA-MB-231 cell line, read-out: IC50): 7400 nM"
"CCc1cc2ncc(CN3CCN(c4ccc(C(=O)NC)nc4)CC3)cc2[nH]c1=O [AZD5305, reference compound]",–,–,–,–,–,2.2,–,–,–,–,1.94,–,> 10000,–,2.12,–,> 10000,–,"IC50 (PARP6; enzyme activity): 8660 nM; PARP6 multiple vs PARP1 (PARP6; [10]): 20,619; IC50 (PARP11; enzyme activity): 19.4 nM; PARP11 multiple vs PARP1 (PARP11; [10]): 46; tumour regression ([5]; FIG. 3): promoted tumour regression; ORR ([5]; treatment 28 days): 20%"
"CCc1c(N)c2ncc(CN3CCN(c4ccc(C(=O)NC)nc4)CC3)cc2[nH]c1=O [Example 1, 5-(4-((8-Amino-7-ethyl-6-oxo-5,6-dihydro-1,5-naphthyridin-3-yl)methyl)piperazin-1-yl)-N-methylpicolinamide]",0.49,108,52.8,1.78,168,14.4,–,660,–,47700,16.4,>608 fold,> 10000,>538 fold,18.6,no detectable inhibition,> 10000,no detectable inhibition,"IC50 (A549 PARP2-KO cell line; A549, read-out: PARP2-KO IC50): 72.2 nM; Exposure inf ([6]; IV, 2 mg/kg): 38.222 µg·h/mL; Exposure last ([6]; IV, 2 mg/kg): 38.128 µg·h/mL; Exposure inf ([6]; PO, 10 mg/kg): 191.246 µg·h/mL; Exposure last ([6]; PO, 10 mg/kg): 189.56 µg·h/mL; Peak concentration ([6]; PO, 10 mg/kg): 15700 ng/mL; Time to peak ([6]; PO, 10 mg/kg): 2 h; clearance [6, 12]: 0.872 mL/min/kg; half-life [6, 12]: 2.81 h; Vd ([6]; male, mouse, plasma, IV, 2 mg/kg, read-out: Apparent volume of distribution): 0.218 L/kg; bioavailability [6, 13]: 100%; half-life [6, 13]: 3.51 h"
"CCc1c(N)c2ncc(CN3CCN(c4ccc(C(=O)NOC)nc4F)CC3)cc2[nH]c1=O [Example 2, 5-(4-((8-Amino-7-ethyl-6-oxo-5,6-dihydro-1,5-naphthyridin-3-yl)methyl)piperazin-1-yl)-6-fluoro-N-methoxypicolinamide]",0.39,44,17,3.73,338,10.5,61.7,>648,no detectable inhibition,> 40000,5.74,">1,742 fold",> 10000,">1,162 fold",8.62,no detectable inhibition,> 10000,no detectable inhibition,–
